This note sets out measurements from patent US11976083B2, “Inhibitors of peptidylarginine deiminases” (Gilead Sciences, Inc., priority 2020, dated 2024).

The assay deals with T1, human PAD4 (Homo sapiens, UniProt Q9UM07).
T1 construct: human PAD4 (NM_012387), A2-P663, was PCR amplified; His-SUMO (N, cleaved yes); made in house; host or cells: E. coli BL21(DE3)
In words: In vitro PAD4 BAEE biochemical assay. To be noted: BAEE substrate 3 mM, 5 nM PAD4, 2 mM calcium chloride; geometric mean of multiple experiments. An excerpt:
In Vitro PAD4 BAEE Biochemical Assay
The enzymatic activity of human PAD4 was monitored in a biochemical assay in the presence or absence of compounds using the small peptidyl arginine mimic BAEE (Na-Benzoyl-L-arginine ethyl ester hydrochloride) as substrate. PAD4 activity led to deimination of BAEE and release of ammonia. Levels of ammonia were monitored by using an amine coupling reaction and were indicative of PAD4 enzymatic activity.
One hundred nanoliters of test compounds dissolved in DMSO at various concentrations were dispensed into a 384-well black OptiPlate using a Labcyte Echo instrument. Ten microliters of a solution of recombinant PAD4 and calcium chloride diluted in PAD4 assay buffer (50 mM MOPS [3-(N-morpholino) propanesulfonic acid], pH 7.6; 50 mM sodium chloride; 0.05% Tween-20; 2 mM dithiothreitol) was added to the compound-containing plate and was incubated for 30 minutes at 25° C. Ten microliters of a solution of BAEE (Sigma-Aldrich #B4500) diluted in PAD4 assay buffer was then added to start the reaction. Final concentrations were 5 nM PAD4, 2 mM calcium chloride, and 3 mM BAEE. The reaction mixture was incubated at 25° C. for 2 hours and was stopped with the addition of 10 microliters of a solution of 75 mM EDTA (Ethylenediaminetetraacetic acid) in PAD4 assay buffer. Thirty microliters of detection solution (5 mM o-phthalaldehyde, 50 mM MOPS [3-(N-morpholino) propanesulfonic acid], pH 7.6; 50 mM sodium chloride; 0.05% Tween-20; 5 mM dithiothreitol) was then added and the reaction was incubated for 1 hour at 25° C. The level of fluorescent thiol-substituted isoindole resulting from the reaction of ammonia, o-phthalaldehyde, and dithiothreitol was measured on an Envision plate reader (PerkinElmer) with 405 nm excitation and 535 nm emission.
Data were normalized based on maximum inhibition (50 micromolar of the covalent PAD inhibitor BB-Cl-Amidine (Bicker, K. L.; Anguish, L.; Chumanevich, A. A.; Cameron, M. D.; Cui, X.; Witalison, E.; Subramanian, V.; Zhang, X.; Chumanevich, A. P.; Hofseth, L. J.; Coonrod, S. A.; Thompson, P. R. ACS Med. Chem. Lett. 2012, 3, 1081-1085). and no inhibition (DMSO) controls. Least squares curve fittings were performed using a four-parameter variable slope nonlinear regression model. IC50 is defined as the concentration of compound required to inhibit 50% of maximum activity. IC50 values from multiple experiments were averaged by geometric mean and the standard deviation was calculated.

T1 sequence (Q9UM07 2-663): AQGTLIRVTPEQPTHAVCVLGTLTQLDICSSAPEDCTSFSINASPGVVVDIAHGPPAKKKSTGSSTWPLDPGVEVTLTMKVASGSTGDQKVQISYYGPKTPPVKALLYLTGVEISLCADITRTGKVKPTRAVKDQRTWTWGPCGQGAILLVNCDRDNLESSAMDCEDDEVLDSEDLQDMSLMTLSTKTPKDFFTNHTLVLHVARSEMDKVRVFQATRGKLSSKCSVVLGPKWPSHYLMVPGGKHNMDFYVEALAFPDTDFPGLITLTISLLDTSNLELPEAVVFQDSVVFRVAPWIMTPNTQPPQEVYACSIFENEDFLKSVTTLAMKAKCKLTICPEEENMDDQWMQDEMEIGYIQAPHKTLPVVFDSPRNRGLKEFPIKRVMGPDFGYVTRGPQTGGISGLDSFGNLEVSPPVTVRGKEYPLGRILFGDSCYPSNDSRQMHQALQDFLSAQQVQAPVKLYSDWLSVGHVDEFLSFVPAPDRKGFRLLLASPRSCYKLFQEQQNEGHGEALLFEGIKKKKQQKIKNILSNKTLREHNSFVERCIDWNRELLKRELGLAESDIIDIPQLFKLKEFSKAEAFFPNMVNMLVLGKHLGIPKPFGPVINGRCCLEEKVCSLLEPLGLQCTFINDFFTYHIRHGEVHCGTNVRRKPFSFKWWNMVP

Regarding `C[C@H]1NC(=O)c2ccc(Cl)nc2CCCCCn2c(-c3nc4cc(C(=O)N5C[C@H](N)[C@@H]6CC[C@H]5C6)cc(F)c4n3C3CC3)cc3cc(F)c1nc32` [Example 895, (2~{R})-17-[5-[(1~{S},4~{R}, 5~{R})-4-amino-2-azabicyclo [3.2.1]octane-2-carbonyl]-1-cyclopropyl-7-fluoro-benzimidazol-2-yl]-8-chloro-21-fluoro-2-methyl-3,9,16,22-tetrazatetracyclo[14.5.2.0^ {5,10).0^{19,23}]tricosa-1(22),5(10),6,8,17,19(23),20-heptaen-4-one], the IC50 was 34 nM.
In the case of `COc1cc(C(=O)N2[C@H]3CC[C@@H]2[C@H](N)C3)cc2nc(-c3cc4ccc5nc4n3CCCCCCNC(=O)c3ccccc3-5)n(C)c12` [Example 48, 17-[5-[(1~{R),2~{R},4~{S})-2-amino-7-azabicyclo[2.2.1]heptane-7-carbonyl]-7-methoxy-1-methyl-benzimidazol-2-yl]-9,16,22-triazatetracyclo[14.5.2.0^{2,7}.0^{19,23}] tricosa-1(22),2,4,6,17,19(23),20-heptaen-8-one] it was 75 nM; in that of `C[C@H]1NC(=O)c2ccc(Cl)nc2CCCCCn2c(-c3nc4cc(C(=O)N5C[C@H](N)[C@@H]6CC[C@H]5C6)cc(OC(F)F)c4n3C3CC3)cc3ccc1nc32` [Example 760, (2~{R})-17-[5-[(1~{S},4~{R}, 5~{R})-4-amino-2-azabicyclo [3.2.1]octane-2-carbonyl]-1-cyclopropyl-7-(difluoromethoxy)benzimidazol-2-yl]-8-chloro-2-methyl-3,9,16,22-tetrazatetracyclo [14.5.2.0^{5,10}.0^{19,23}] tricosa-1(22),5(10), 6,8,17,19(23),20-heptaen-4-one], 70 nM.
To `COc1cc(C(=O)N2CCC[C@@H](N)C2)cc2nc(-c3cc4ccc5cc4n3CCCCCCC(C)(C)C(=O)Nc3ccccc3-5)n(C)c12` [Example 54, 18-[5-[(3~{R})-3-aminopiperidine-1-carbonyl]-7-methoxy-1-methyl-benzimidazol-2-yl]-10,10-dimethyl-8,17-diazatetracyclo[15.5.2.0^{2,7).0^{20,24}] tetracosa-1(23),2,4,6,18,20(24),21-heptaen-9-one] belongs 1380 nM; to `COc1cc(C(=O)N2CCC[C@@H](N)C2)cc2nc(-c3cc4ccc5cc4n3CCCCCCC(=O)Nc3ccccc3-5)n(C)c12` [Example 47, 17-[5-[(3~{R})-3-aminopiperidine-1-carbonyl]-7-methoxy-1-methyl-benzimidazol-2-yl]-8,16-diazatetracyclo[14.5.2.0^{2,7}.0^{19,23}] tricosa-1(22),2,4,6,17,19(23),20-heptaen-9-one], 458 nM.
With `COc1cc(C(=O)N2C[C@H](N)[C@@H]3CC[C@H]2C3)cc2nc(-c3cc4ccc5nc4n3CCCCCc3ccccc3C(=O)N[C@@H]5C)c(C)n12` [Example 936, (2~{R})-17-[7-[(1~{S},4~{R}, 5~{R})-4-amino-2-azabicyclo [3.2.1]octane-2-carbonyl]-5-methoxy-3-methyl-imidazo [1,2-a]pyridin-2-yl]-2-methyl-3,16,22-triazatetracyclo [14.5.2.0^{5,10).0^{19,23}] tricosa-1(21),5(10),6,8,17,19,22-heptaen-4-one], the IC50 was determined as 39 nM.
In the case of `COc1cc(C(=O)N2[C@H]3CC[C@@H]2[C@H](N)C3)cc2nc(-c3cc4ccc5nc4n3CCCCCc3nccnc3C(=O)N[C@@H]5C)n(C)c12` [Example 598, (2~{R})-17-[5-[(1~{R}, 2~{R},4~{S})-2-amino-7-azabicyclo[2.2.1]heptane-7-carbonyl]-7-methoxy-1-methyl-benzimidazol-2-yl]-2-methyl-3,6,9,16,22-pentazatetracyclo[14.5.2.0^ {5,10}.0^{19,23}] tricosa-1(21),5(10),6,8,17, 19,22-heptaen-4-one] it was 42 nM; in that of `C[C@H]1NC(=O)[C@@H]2C[C@H]2CCCCCn2c(-c3nc4cc(C(=O)N[C@H]5CNCC[C@@H]5F)c(F)cc4n3C)cc3ccc1cc32` [Example 564, 6-fluoro-~{N}-[(3~{S},4~ {S})-4-fluoro-3-piperidyl]-1-methyl-2-[(2~{R},5~ {R},7~{R})-2-methyl-4-oxo-3,13-diazatetracyclo [11.5.2.0^{5,7}.0^{16,20}]icosa-1(19),14,16(20), 17-tetraen-14-yl] benzimidazole-5-carboxamide], 24 nM.
In the case of `C[C@H]1NC(=O)c2ccnn2CCCCCn2c(-c3nc4cc(C(=O)N5C[C@H](N)[C@@H]6CC[C@H]5C6)cc(F)c4n3C3CC3)cc3ccc1nc32` [Example 912, (2~{R})-16-[5-[(1~{S},4~{R},5~ {R})-4-amino-2-azabicyclo [3.2.1]octane-2-carbonyl]-1-cyclopropyl-7-fluoro-benzimidazol-2-yl]-2-methyl-3,8,9,15,21-pentazatetracyclo [13.5.2.0^{5,9}.0^{18,22}] docosa-1(21),5,7,16,18(22),19-hexaen-4-one], the IC50 was 17 nM.
Consider `COc1cc(C(=O)N2[C@H]3CC[C@@H]2[C@H](N)C3)cc2nc(-c3cc4ccc5nc4n3CCCCCCC(C)(C)C(=O)N[C@@H]5C)c(C)n12` [Example 121, (11~{R})-17-[7-[(1~{R},2~{R},4~{S})-2-amino-7-azabicyclo[2.2.1]heptane-7-carbonyl]-5-methoxy-3-methyl-imidazo[1,2-a]pyridin-2-yl]-8,8,11-trimethyl-1,10,19-triazatricyclo[10.5.2.0^{15,18}]nonadeca-12(19),13,15(18),16-tetraen-9-one], for which the IC50 came out at 46 nM.
To `C[C@@H]1[C@H](N)CCCN1C(=O)c1cc(F)c2c(c1)nc(-c1cc3ccc4nc3n1CC(F)(F)CCC[C@@H]1C[C@H]1C(=O)N[C@@H]4C)n2C1CC1` [Example 639, (2~{R},5~{R},7~{R})-14-[5-[(2~{R},3~{R})-3-amino-2-methyl-piperidine-1-carbonyl]-1-cyclopropyl-7-fluoro-benzimidazol-2-yl]-11,11-difluoro-2-methyl-3,13,19-triazatetracyclo[11.5.2.0^ {5,7}.0^{16,20}]icosa-1(19),14,16(20),17-tetraen-4-one] belongs 15 nM.
To `COc1cc(C(=O)N2[C@H]3CC[C@@H]2[C@H](N)C3)cc2nc(-c3cc4ccc5nc4n3CCCCCCCC(=O)N(C)[C@@H]5C)c(C)n12` [Example 319, (11~{R})-17-[7-[(1~{R},2~{R},4~{S})-2-amino-7-azabicyclo[2.2.1]heptane-7-carbonyl]-5-methoxy-3-methyl-imidazo[1,2-a]pyridin-2-yl]-10,11-dimethyl-1,10,19-triazatricyclo[10.5.2.0^{15,18}]nonadeca-12(19),13,15(18),16-tetraen-9-one] belongs 266 nM; to `COc1cc(C(=O)N[C@H]2CNCC[C@@H]2F)cc2nc(-c3cc4ccc5nc4n3C[C@@H]3C[C@H]3CCc3ccccc3C(=O)N[C@@H]5C)n(C)c12` [Example 346, ~{N}-[(3~{S),4~{S})-4-fluoro-3-piperidyl]-7-methoxy-1-methyl-2-[(3~{R},5~{R},16~{R})-16-methyl-14-oxo-1,15,24-triazapentacyclo[15.5.2.0^{3,5}.0^{8,13}.0^ {20,23}]tetracosa-8,10,12,17(24),18,20(23),21-heptaen-22-yl]benzimidazole-5-carboxamide], 97 nM; to `COc1cc(C(=O)N2C[C@H](N)[C@@H]3CC[C@H]2C3)cc2nc(-c3cc4ccc5nc4n3CC(F)(F)CCCOC(C)(C)C(=O)N[C@@H]5C)n(C3CC3)c12` [Example 771, (11~{R})-17-[5-[(1~{S),4~{R}, 5~{R})-4-amino-2-azabicyclo [3.2.1]octane-2-carbonyl]-1-cyclopropyl-7-methoxy-benzimidazol-2-yl]-3,3-difluoro-8,8,11-trimethyl-7-oxa-1,10,19-triazatricyclo[10.5.2.0^ {15,18}]nonadeca-12(19),13,15(18),16-tetraen-9-one], 28 nM.
In the case of `C[C@H]1NC(=O)C2C[C@H]2CCCCCn2c(-c3nc4cc(C(=O)N5CCC[C@@H](N)C5)cc(Cl)c4n3C)cc3ccc1nc32` (stereo partly drawn) [Example 506, (2~{R},7~{R})-14-[5-[(3~ {R})-3-aminopiperidine-1-carbonyl]-7-chloro-1-methyl-benzimidazol-2-yl]-2-methyl-3,13,19-triazatetracyclo[11.5.2.0^ {5,7}.0^{16,20}]icosa-1(19), 14,16(20),17-tetraen-4-one] it was 39 nM.
